Experimental data taken from ChEMBL document CHEMBL5365551, “Fragment-Based NMR Screening of the BPTF PHD Finger Methyl Lysine Reader Leads to the First Small-Molecule Inhibitors” (ACS Med Chem Lett, 2023).
pIC50: −log10 of the molar value. Active and inactive are the calls of the source. The rule behind the calls is not given here.

Key:
[1] = biological target: Lysine-specific demethylase 5A (Homo sapiens) (UniProt P29375); assay: Binding affinity to N-terminal His-tagged human KDM5A PHD3 (1486 to 1690 residues) expressed in Escherichia coli BL21 Star (DE3) assessed as reduction in proton resonance intensity at 100 uM by 1H CPMG NMR assay relative to control; parameters: scale not given: the % may be the effect or the level left
[2] = biological target: T1, Nucleosome-remodeling factor subunit BPTF (Homo sapiens, UniProt Q12830); assay: Binding affinity to N-terminal His9 tagged human BPTF isoform 2 PHD (2722 to 2781 residues) expressed in Escherichia coli BL21 Star (DE3) at 400 uM by SPR assay
[3] = biological target: T1, Nucleosome-remodeling factor subunit BPTF; assay: Inhibition of biotinylated-H3K4me2 binding to N-terminal His9 tagged human BPTF isoform 2 PHD (2722 to 2781 residues) expressed in Escherichia coli BL21 Star (DE3) at 2 mM measured after 1 hr by Alphascreen assay relative to control
[4] = biological target: T1, Nucleosome-remodeling factor subunit BPTF; assay: Binding affinity to N-terminal His9 tagged human BPTF isoform 2 PHD (2722 to 2781 residues) expressed in Escherichia coli BL21 Star (DE3) assessed as reduction in proton resonance intensity at 100 uM by 1H CPMG NMR assay relative to control; parameters: scale not given: the % may be the effect or the level left
[5] = biological target: T1, Nucleosome-remodeling factor subunit BPTF; assay: Inhibition of biotinylated-H3K4me2 binding to N-terminal His9 tagged human BPTF isoform 2 PHD (2722 to 2781 residues) expressed in Escherichia coli BL21 Star (DE3) measured after 1 hr by Alphascreen assay; conditions: for pIC50: read-out: IC50
[6] = biological target: T1, Nucleosome-remodeling factor subunit BPTF; assay: Binding affinity to N-terminal His9 tagged human BPTF isoform 2 PHD (2722 to 2781 residues) expressed in Escherichia coli BL21 Star (DE3) assessed as change in chemical shift perturbations at 1 mM by 1H,15N HSQC NMR spectroscopy

Sequence of Lysine-specific demethylase 5A (Homo sapiens) (P29375 whole entry, the tested form may be a part, canonical isoform): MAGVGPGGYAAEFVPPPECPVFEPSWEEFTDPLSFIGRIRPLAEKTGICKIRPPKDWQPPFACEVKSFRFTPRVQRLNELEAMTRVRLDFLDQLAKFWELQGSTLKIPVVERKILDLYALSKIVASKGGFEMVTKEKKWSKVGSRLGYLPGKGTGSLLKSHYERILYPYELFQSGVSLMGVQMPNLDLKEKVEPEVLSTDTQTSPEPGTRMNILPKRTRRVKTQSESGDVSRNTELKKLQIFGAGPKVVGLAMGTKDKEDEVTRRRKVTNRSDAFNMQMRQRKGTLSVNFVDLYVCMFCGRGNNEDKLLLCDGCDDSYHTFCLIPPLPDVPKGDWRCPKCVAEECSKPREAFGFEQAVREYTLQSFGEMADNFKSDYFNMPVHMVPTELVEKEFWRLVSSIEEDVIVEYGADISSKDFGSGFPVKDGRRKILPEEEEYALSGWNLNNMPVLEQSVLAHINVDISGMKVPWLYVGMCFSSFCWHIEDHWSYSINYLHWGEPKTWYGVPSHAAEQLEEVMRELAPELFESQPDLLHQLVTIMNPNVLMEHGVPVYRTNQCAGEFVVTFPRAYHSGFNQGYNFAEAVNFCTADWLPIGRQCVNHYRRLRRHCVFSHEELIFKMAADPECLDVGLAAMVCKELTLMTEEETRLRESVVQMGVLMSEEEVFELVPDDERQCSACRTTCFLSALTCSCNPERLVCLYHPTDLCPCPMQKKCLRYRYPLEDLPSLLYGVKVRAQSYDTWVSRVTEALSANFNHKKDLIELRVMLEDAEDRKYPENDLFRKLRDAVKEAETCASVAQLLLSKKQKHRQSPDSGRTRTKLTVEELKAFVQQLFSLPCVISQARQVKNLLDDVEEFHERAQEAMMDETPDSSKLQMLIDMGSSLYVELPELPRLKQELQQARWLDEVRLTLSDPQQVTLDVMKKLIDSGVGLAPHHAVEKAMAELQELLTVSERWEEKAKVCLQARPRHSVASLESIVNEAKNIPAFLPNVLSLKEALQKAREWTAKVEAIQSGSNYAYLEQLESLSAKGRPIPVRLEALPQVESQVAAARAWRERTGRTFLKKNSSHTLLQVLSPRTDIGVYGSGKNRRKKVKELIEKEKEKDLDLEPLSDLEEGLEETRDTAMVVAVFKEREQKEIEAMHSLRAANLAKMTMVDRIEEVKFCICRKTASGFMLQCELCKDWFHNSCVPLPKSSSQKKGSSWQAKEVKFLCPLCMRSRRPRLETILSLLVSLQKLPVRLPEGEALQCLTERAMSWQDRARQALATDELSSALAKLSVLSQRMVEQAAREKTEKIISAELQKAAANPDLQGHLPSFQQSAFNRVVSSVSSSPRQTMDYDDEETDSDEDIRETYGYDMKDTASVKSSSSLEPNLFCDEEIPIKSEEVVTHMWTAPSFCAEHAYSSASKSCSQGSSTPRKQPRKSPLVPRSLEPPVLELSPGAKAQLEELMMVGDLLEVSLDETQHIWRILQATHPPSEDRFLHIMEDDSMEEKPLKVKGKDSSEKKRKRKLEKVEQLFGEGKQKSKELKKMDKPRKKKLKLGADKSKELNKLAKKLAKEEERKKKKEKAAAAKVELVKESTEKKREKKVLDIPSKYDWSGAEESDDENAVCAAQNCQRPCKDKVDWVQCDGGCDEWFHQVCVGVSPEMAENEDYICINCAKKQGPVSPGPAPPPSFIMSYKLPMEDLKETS

Activity [1] | Activity [2] | Activity [4] | pIC50 [5] | Structure (SMILES) | further results
 |  |  | 4.60 | Fc1ccc(Nc2ccc(N3CCNCC3)nn2)cc1 | Activity [6]: inactive
< 20% | Active | 50% | 3.52 | Cc1ccc(Nc2ccc(N3CCNCC3)nn2)cc1 | Activity [6]: inactive
 |  |  | 4.52 | Cc1ccc(Nc2ccc(N3CCNCC3)nn2)nc1 | 
< 20% |  | 35% |  | Cc1ccc(NC(=O)NCC(C)N2CCCC2)cc1 (centres undefined) | 
 |  |  | 2.92 | CC(=O)N1CCN(c2ccc(Nc3ccc(C)cc3)nn2)CC1 | 
< 20% | Active | 50% |  | Cc1cccc(CSC2=NCCN2)c1 | inhibition [3]: 83%
 |  |  | 4.70 | c1ccc(Nc2ccc(N3CCNCC3)nn2)nc1 | 

Further lines, the compound ahead of its results:

Structure (SMILES) | Activity [1] | Activity [2] | Activity [4] | pIC50 [5] | further results
Cn1nc2c(c1CNC(=O)c1ccc3c(c1)OCO3)CCC2 | < 20% | inactive | 25% |  | inhibition [3]: 71%
NCC1CC(=O)N(c2ccc(F)c(F)c2)C1 (centres undefined) |  |  |  | 3.66 | 
N#Cc1c(N)sc2c1CCCC2 | > 20% | inactive | 60% | 3.89 | Activity [6]: Active
O=C(CC12CC3CC(CC(C3)C1)C2)N1CCCC1 | > 20% | inactive | 25% | 3.30 | 
NCC1CCN(c2cccc(F)c2)C1 (centres undefined) | < 20% | Active | 65% | 3.42 | Activity [6]: Active
Cc1ccc(Nc2ccc(Cl)nn2)cc1 |  |  |  |  | IC50 [5]: Not Determined(Insoluble)
Nc1ccnc2c1CCCC2 |  |  |  |  | inhibition [3]: 70%
Nc1c2c(nc3c1CCC3)CCCC2 [IPIDACRINE] | < 20% | Active | 50% | 3.23 | 
CCS(=O)(=O)N1CCN(c2ccc(Nc3ccc(C)cc3)nn2)CC1 |  |  |  |  | inhibition [3]: 78%
c1ccc(N2CC3CNCC3C2)cc1 (centres undefined) |  |  |  | 3.82 | 
CC(=O)N1CCc2c(sc(N)c2C#N)C1 |  |  |  | 3.42 | 
Clc1ccc(N2CCNCC2)nn1 |  |  |  | 3.12 | 
c1ccc2nc(N3CCOCC3)ccc2c1 | < 20% | inactive | 35% |  | 
N#Cc1c(N)sc2c1CCCCC2 |  |  |  | 4.20 | 
COC1CN(c2nc3ccccc3s2)C1 | < 20% | Active | 30% |  | inhibition [3]: 70%
Nc1c2c(nc3c1CCC3)CCC2 |  |  |  |  | inhibition [3]: 60%
